# Entries after “also recorded” stand apart in the source; their conditions may differ. Ends that are not written are not given here.
# Key:
# [1] = test system: CR+ B cell differentiation from CR- B cell precursors (spleen cell populations from nu/nu mice); assay: induction in vitro of CR+ B cell differentiation from CR- B cell precursors (binding of sheep erythrocytes coated with antibody and complement); assay type: cell-based
# Method: (§1) to determine the activity and characteristics of the polypeptide, determinations were carried out on healthy 5-6 week old nu/nu mice of both sexes, the mice being bred on a BALB/c background (thymocytes expressing Thy-1.2 surface antigen) and maintained under conventional conditions. For the antisera, anti Thy-1.2 sera were prepared in Thy-1 congenic mice.
# (§2) For the induction of in vitro of Thy-1^+ T cell or CR^+ B cell differentiation, the induction of thymocyte differentiation from prothymocytes in vitro was performed as described by Komuro and Boyse, (Lancet 1, 740, 1973), using the acquisition of Thy-1.2 as a marker of T cell differentiation. The induction of CR^+ B cell differentiation from CR^- B cell precursors in vitro was performed under similar conditions using as the assay criterion, the capacity of CR^+ B cells to bind sheep erythrocytes coated with subagglutinating quantities of rabbit antibody and nonlytic complement. Spleen cell populations from healthy nu/nu mice fractionated on discontinuous bovine serium albumin gradients were used as the source of both precursor types (Thy-1 and […]) because they have few or no Thy-1^+ cells and low numbers of CR^+ cells.
# [2] = test system: Thy-1+ T cell differentiation from prothymocytes (spleen cell populations from nu/nu mice); assay: induction in vitro of Thy-1+ T cell differentiation from prothymocytes (acquisition of Thy-1.2 as marker); assay type: cell-based; conditions: for induction of T cell differentiation (qualitative): induction assay in vitro, no concentration stated
# Method: as §1, §2
sequence,measurement,setting,value
"GEQRKDVYVQLYL [tridecapeptide, H2 N--Gly--Glu--Gln--Arg--Lys--Asp--Val--Tyr--Val--Gln--Leu--Tyr--Leu--COOH]",induction of differentiation of CR+ B cells,"[1]; in vitro, concentrations 0.01 ng to 10 μg/ml",does not induce; also recorded: did not induce
same,induction of CR+ B cell differentiation (qualitative),"[1]; induction assay in vitro, no concentration stated, listed as synthetic peptide",did not induce
same,concentration from which the polypeptide is maximally active,[2]; in vitro,about 100 nanogram per ml
same,concentration from which the polypeptide is active,"[2]; in vitro, lower end of active concentrations",1 nanogram per ml
same,induction of T cell differentiation (qualitative),[2]; listed as polypeptide,inducing the differentiation of T-lymphocytes
same,induction of T cell differentiation (qualitative),[2]; listed as synthetic peptide,induced the differentiation
